Measured values: patent publication US6727264B1 (Synaptic Pharmaceutical Corporation, priority 2001, dated 2004)

These molecules were tested against rat MCH-1 (Rattus norvegicus, UniProt P97639) (assay: Radioligand binding assay at cloned rat MCH1 receptor ([3H] Compound A)). Conditions: cloned rat MCH1 receptor, membranes from Peakr293 cells, 0.08 nM [3H] Compound A; read-out: Ki (nM) rMCH1.
Design: host or cells: Peak rapid 293 (Peakr293) cells, transient calcium phosphate transfection, membranes

Sequence of rat MCH-1 (P97639 whole entry): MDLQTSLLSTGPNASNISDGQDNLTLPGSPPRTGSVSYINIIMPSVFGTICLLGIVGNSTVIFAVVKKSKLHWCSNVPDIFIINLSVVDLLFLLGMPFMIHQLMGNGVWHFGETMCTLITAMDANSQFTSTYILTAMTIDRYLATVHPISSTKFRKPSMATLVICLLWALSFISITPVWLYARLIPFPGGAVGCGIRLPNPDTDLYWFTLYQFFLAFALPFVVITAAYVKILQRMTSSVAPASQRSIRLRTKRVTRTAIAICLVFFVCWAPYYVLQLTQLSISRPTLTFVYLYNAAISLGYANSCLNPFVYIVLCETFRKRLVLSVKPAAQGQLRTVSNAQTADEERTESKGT

Ki [nM]	SMILES
116	CC(C)C(=O)Nc1cccc(C2CCN(Cc3ccc4c(c3)OCCCO4)CC2)c1 [Example 234]
412	CC(C)C(=O)Nc1cccc(C2CCN(Cc3c[nH]nc3-c3cccs3)CC2)c1 [Example 235]
97.7	CC(C)C(=O)Nc1cccc(C2CCN(Cc3ccc(-c4cccs4)s3)CC2)c1 [Example 236]
65.9	CC(C)C(=O)Nc1cccc(C2CCN(Cc3ccc(-c4cc(C(F)(F)F)n(C)n4)s3)CC2)c1 [Example 238]
362	CC(C)C(=O)Nc1cccc(C2CCN(Cc3cc4ccccc4s3)CC2)c1 [Example 253]
401	CC(C)C(=O)Nc1cccc(C2CCN(Cc3ccc(-c4cccc(OC(F)(F)F)c4)o3)CC2)c1 [Example 254]
590	CC(C)C(=O)Nc1cccc(C2CCN(Cc3ccc4ccccc4n3)CC2)c1 [Example 255]
321	CC(C)C(=O)Nc1cccc(C2CCN(Cc3ccc(-n4ccnc4)cc3)CC2)c1 [Example 256]
37.2	CC(C)C(=O)Nc1cccc(C2CCN(Cc3ccc4c(c3)Cc3ccccc3-4)CC2)c1 [Example 257]
15.4	CC(C)C(=O)Nc1cccc(C2CCN(Cc3ccc(Oc4ccccc4)cc3)CC2)c1 [Example 259]
77.7	CC(C)C(=O)Nc1cccc(C2CCN(Cc3ccc(-c4ccccc4)cc3)CC2)c1 [Example 260]
6.5	CCCCN(CCCC)c1ccc(CN2CCC(c3cccc(NC(=O)C(C)C)c3)CC2)cc1 [Example 261]
64.1	Cc1ccc(Sc2ccc(CN3CCC(c4cccc(NC(=O)C(C)C)c4)CC3)cc2[N+](=O)[O-])cc1 [Example 262]
156	CC(C)C(=O)Nc1cccc(C2CCN(Cc3ccc(-c4csnn4)cc3)CC2)c1 [Example 263]
54.7	Cc1ccc(C(=O)CCCN2CCC(c3cccc(NC(=O)C(C)C)n3)CC2)cc1C [Example 264]
13.5	CC(C)C(=O)Nc1cccc(C2CCN(CCCC(c3ccc(F)cc3)c3ccc(F)cc3)CC2)n1 [Example 265]
6.4	CC(C)C(=O)Nc1cccc(C2CCN(Cc3ccc(Oc4ccc(F)c(F)c4)cc3)CC2)n1 [Example 266]
20.3	CCn1c2ccccc2c2cc(CN3CCC(c4ccc(C)c(NC(=O)C(C)C)c4)CC3)ccc21 [Example 268]
27.4	Cc1ccc(C2CCN(Cc3ccc(Oc4ccc(F)c(F)c4)cc3)CC2)cc1NC(=O)C(C)C [Example 269]
3.4	CCn1c2ccccc2c2cc(CN3CCC(c4cc(NC(=O)C(C)C)ccc4C)CC3)ccc21 [Example 270]
40.1	Cc1ccc(C2CCN(CCCC(c3ccc(F)cc3)c3ccc(F)cc3)CC2)cc1NC(=O)C(C)C [Example 271]
196	CC(=O)c1cccc(O[C@@H](CCN2CCC(c3ccc(C)c(NC(=O)C(C)C)c3)CC2)c2ccccc2)c1 [Example 273]

Ki [nM]	SMILES
844	CCn1c2ccccc2c2cc(CN3CCC(c4ccccc4NC(=O)C(C)C)CC3)ccc21 [Example 274]
3.1	Cc1ccc(NC(=O)C(C)C)cc1C1CCN(CCCC(c2ccc(F)cc2)c2ccc(F)cc2)CC1 [Example 275]
734	CC(C)C(=O)Nc1ccccc1C1CCN(CCCC(c2ccc(F)cc2)c2ccc(F)cc2)CC1 [Example 276]
118	CC(C)C(=O)Nc1ccc(OC(F)(F)F)cc1C1CCN(CCCC(c2ccc(F)cc2)c2ccc(F)cc2)CC1 [Example 277]
85.8	O=C(Nc1cccc(C2CCN(CC[C@@H](O)c3ccccc3)CC2)c1)C1CC1 [Example 278]
74.5	CC(C)C(=O)Nc1cccc(C2CCN(CCCC(O)c3ccccc3)CC2)c1 (stereo not shown) [Example 279]
27.6	CC(C)C(=O)Nc1cccc(C2CCN(CCCCC(O)c3ccccc3)CC2)c1 (stereo not shown) [Example 280]
7.9	CC(C)C(=O)Nc1cccc(C2CCN(CCCCCC(O)c3ccccc3)CC2)c1 (stereo not shown) [Example 281]
23.5	CC(C)C(=O)Nc1cccc(C2CCN(CCCCCCC(O)c3ccccc3)CC2)c1 (stereo not shown) [Example 282]
16.3	Cc1onc(-c2c(Cl)cccc2Cl)c1C(=O)OC(CCCN1CCC(c2cccc(NC(=O)C(C)C)c2)CC1)c1ccccc1 (stereo not shown) [Example 284, 4-{4-[3-(ISOBUTYRYLAMINO)PHENYL]-1-PIPERIDINYL}-1-PHENYLBUTYL 3-(2,6-DICHLOROPHENYL)-5-METHYL-4-ISOXAZOLECARBOXYLATE]
10.3	CC(C)C(=O)Nc1cccc(C2CCN(CCCC(OC(=O)Cc3ccc(F)cc3)c3ccccc3)CC2)c1 (stereo not shown) [Example 285]
67.8	CC(C)C(=O)Nc1cccc(C2CCN(CCCOC(=O)Cc3ccc(F)cc3)CC2)c1 [Example 286]
34.3	Cc1onc(-c2c(F)cccc2Cl)c1C(=O)OCCCN1CCC(c2cccc(NC(=O)C(C)C)c2)CC1 [Example 287, 3-{4-[3-(ISOBUTYRYLAMINO)PHENYL]-1-PIPERIDINYL}PROPYL 3-(2-CHLORO-6-FLUOROPHENYL)-5-METHYL-4-ISOXAZOLECARBOXYLATE]
30.2	Cc1onc(-c2c(Cl)cccc2Cl)c1C(=O)OCCCN1CCC(c2cccc(NC(=O)C(C)C)c2)CC1 [Example 288, 3-{4-[3-(ISOBUTYRYLAMINO)PHENYL]-1-PIPERIDINYL}PROPYL 3-(2,6-DICHLOROPHENYL)-5-METHYL-4-ISOXAZOLECARBOXYLATE]
31.8	Cc1onc(-c2ccccc2Cl)c1C(=O)OCCCN1CCC(c2cccc(NC(=O)C(C)C)c2)CC1 [Example 289, 3-{4-[3-(ISOBUTYRYLAMINO)PHENYL]-1-PIPERIDINYL}PROPYL 3-(2-CHLOROPHENYL)-5-METHYL-4-ISOXAZOLECARBOXYLATE]
51.9	Cc1onc(-c2c(Cl)cccc2Cl)c1C(=O)O[C@@H](CCN1CCC(c2cccc(NC(=O)C(C)C)c2)CC1)c1ccccc1 [Example 290, (1S)-3-{4-[3-(ISOBUTYRYLAMINO)PHENYL]-1-PIPERIDINYL}-1-PHENYLPROPYL 3-(2,6-DICHLOROPHENYL)-5-METHYL-4-ISOXAZOLECARBOXYLATE]
24.3	Cc1onc(-c2c(F)cccc2Cl)c1C(=O)OCCCCN1CCC(c2cccc(NC(=O)C(C)C)c2)CC1 [Example 291, 4-{4-[3-(ISOBUTYRYLAMINO)PHENYL]-1-PIPERIDINYL}BUTYL 3-(2-CHLORO-6-FLUOROPHENYL)-5-METHYL-4-ISOXAZOLECARBOXYLATE]
18.4	Cc1onc(-c2ccccc2Cl)c1C(=O)OCCCCN1CCC(c2cccc(NC(=O)C(C)C)c2)CC1 [Example 292, 4-{4-[3-(ISOBUTYRYLAMINO)PHENYL]-1-PIPERIDINYL}BUTYL 3-(2-CHLOROPHENYL)-5-METHYL-4-ISOXAZOLECARBOXYLATE]
39.9	Cc1onc(-c2ccccc2)c1C(=O)OCCCN1CCC(c2cccc(NC(=O)C(C)C)c2)CC1 [Example 293, 3-{4-[3-(ISOBUTYRYLAMINO)PHENYL]-1-PIPERIDINYL}PROPYL 5-METHYL-3-PHENYL-4-ISOXAZOLECARBOXYLATE]
15.8	Cc1onc(-c2c(Cl)cccc2Cl)c1C(=O)OCCCCN1CCC(c2cccc(NC(=O)C(C)C)c2)CC1 [Example 294, 4-{4-[3-(ISOBUTYRYLAMINO)PHENYL]-1-PIPERIDINYL}BUTYL 3-(2,6-DICHLOROPHENYL)-5-METHYL-4-ISOXAZOLECARBOXYLATE]
8.7	Cc1onc(-c2c(F)cccc2Cl)c1C(=O)OC(CCCN1CCC(c2cccc(NC(=O)C(C)C)c2)CC1)c1ccccc1 (stereo not shown) [Example 295, 4-{4-[3-(ISOBUTYRYLAMINO)PHENYL]-1-PIPERIDINYL}-1-PHENYLBUTYL 3-(2-CHLORO-6-FLUOROPHENYL)-5-METHYL-4-ISOXAZOLECARBOXYLATE]
